Several values for one entry are separate records, joined by “and”; a condition that tells them apart may be missing. Equal entries are not always repeated.
Test system: KRAS-mutant PDC complex spheroid viability
Test: Anticancer human tumor 186277-243-T-J2-PDC patient-derived colon adenocarcinoma cell line growth inhibition [KRAS2]
Settings: for viability, T/C: stronger effect = lower value
In short: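 KRAS-mutant tumor cells were grown as spheroids with HUVEC endothelial cells and human MSCs as stroma. Targeted agents were tested alone and with KRAS pathway inhibitors. Doses started at or near clinical Cmax, or 10 microM, descending half-log.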

[1] = curve of first compound, second compound 0.0316 µM
[2] = curve of first compound, second compound 0.1 µM
[3] = curve of first compound, second compound 0.316 µM
[4] = curve of first compound, second compound 1 µM
[5] = curve of first compound, second compound 3.16 µM
[6] = second compound 0.0316 µM, first compound 0.0316 µM
[7] = second compound 0.0316 µM, first compound 0.1 µM
[8] = second compound 0.0316 µM, first compound 0.316 µM
[9] = second compound 0.0316 µM, first compound 1 µM
[10] = second compound 0.0316 µM, first compound 3.16 µM
[11] = second compound 0.0316 µM, first compound 10 µM
[12] = second compound 0.1 µM, first compound 0.0316 µM
[13] = second compound 0.1 µM, first compound 0.1 µM
[14] = second compound 0.1 µM, first compound 0.316 µM
[15] = second compound 0.1 µM, first compound 1 µM
[16] = second compound 0.1 µM, first compound 3.16 µM
[17] = second compound 0.1 µM, first compound 10 µM
[18] = second compound 0.316 µM, first compound 0.0316 µM
[19] = second compound 0.316 µM, first compound 0.1 µM
[20] = second compound 0.316 µM, first compound 0.316 µM
[21] = second compound 0.316 µM, first compound 1 µM
[22] = second compound 0.316 µM, first compound 3.16 µM
[23] = second compound 0.316 µM, first compound 10 µM
[24] = second compound 1 µM, first compound 0.0316 µM
[25] = second compound 1 µM, first compound 0.1 µM
[26] = second compound 1 µM, first compound 0.316 µM
[27] = second compound 1 µM, first compound 1 µM
[28] = second compound 1 µM, first compound 3.16 µM
[29] = second compound 1 µM, first compound 10 µM
[30] = second compound 3.16 µM, first compound 0.0316 µM
[31] = second compound 3.16 µM, first compound 0.1 µM
[32] = second compound 3.16 µM, first compound 0.316 µM
[33] = second compound 3.16 µM, first compound 1 µM
[34] = second compound 3.16 µM, first compound 3.16 µM
[35] = second compound 3.16 µM, first compound 10 µM
[36] = curve of first compound, second compound 10 µM
[37] = second compound 10 µM, first compound 0.0316 µM
[38] = second compound 10 µM, first compound 0.1 µM
[39] = second compound 10 µM, first compound 0.316 µM
[40] = second compound 10 µM, first compound 1 µM
[41] = second compound 10 µM, first compound 3.16 µM
[42] = second compound 10 µM, first compound 10 µM
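For viability, T/C in this document: viability read after seven days of compound exposure; 100% = DMSO vehicle-treated spheroids so lower means less viable.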

| Structure (SMILES) | IC50 [2] | IC50 [3] | IC50 [4] | IC50 [5] | viability, T/C [12] | viability, T/C [13] | viability, T/C [14] | viability, T/C [15] | viability, T/C [18] | viability, T/C [19] | viability, T/C [20] | viability, T/C [21] | viability, T/C [24] | viability, T/C [25] | viability, T/C [26] | viability, T/C [27] | viability, T/C [30] | viability, T/C [31] | viability, T/C [32] | viability, T/C [33] | further results |
| --- | --- | --- | --- | --- | --- | --- | --- | --- | --- | --- | --- | --- | --- | --- | --- | --- | --- | --- | --- | --- | --- |
| O=C(c1cc(Cc2n[nH]c(=O)c3ccccc23)ccc1F)N1CCN(C(=O)C2CC2)CC1 + C=CC(=O)N1CCN(c2nc(OCC3CCCN3C)nc3c2CCN(c2cccc4cccc(C)c24)C3)CC1CC#N | 3.53 µM | 8.7 µM | 7.63 µM | < 0.0316 µM | 104% | 119% | 121% | 114% | 113% | 111% | 116% | 118% | 108% | 107% | 107% | 107% | 0.23% | 0.3% | 0.47% | 0.26% | IC50 [1]: 1.17 µM; viability, T/C [6]: 105%; viability, T/C [7]: 107%; viability, T/C [8]: 96.2%; viability, T/C [9]: 53.1%; viability, T/C [10]: 30.7%; viability, T/C [11]: 26.6%; viability, T/C [16]: 51.6%; viability, T/C [17]: 34.3%; viability, T/C [22]: 72.2%; viability, T/C [23]: 47%; viability, T/C [28]: 77.3%; viability, T/C [29]: 41.6%; viability, T/C [34]: 0.28%; viability, T/C [35]: 0.22% |
| CCNC(=O)CC1N=C(c2ccc(Cl)cc2)c2cc(OC)ccc2-n2c(C)nnc21 (stereo not given) |  |  |  |  |  |  |  |  |  |  |  |  |  |  |  |  |  |  |  |  | viability, T/C (compound 0.0316 µM): 96.3% [middle of 5 runs]; viability, T/C (compound 0.1 µM): 101% (4×) and 92.8%; IC50 (curve of compound): > 10 µM and 5.78 µM |
| CCN1CCN(Cc2ccc(Nc3ncc(F)c(-c4cc(F)c5nc(C)n(C(C)C)c5c4)n3)nc2)CC1 + CC1OCC2(CCN(c3cnc(Sc4ccnc(N)c4Cl)c(N)n3)CC2)C1N | > 1 µM | 0.839 µM | 0.574 µM | 0.326 µM | 113% | 148% | 161% | 60.8% | 138% | 155% | 125% | 36.8% | 138% | 125% | 82.3% | 19.9% | 97% | 85.1% | 52.2% | 8.29% | IC50 [36]: 0.102 µM; viability, T/C (second compound 0.1 µM, first compound 0.00316 µM): 96.9%; viability, T/C (second compound 0.1 µM, first compound 0.01 µM): 88.9%; viability, T/C (second compound 0.316 µM, first compound 0.00316 µM): 95.2%; viability, T/C (second compound 0.316 µM, first compound 0.01 µM): 98.7%; viability, T/C (second compound 1 µM, first compound 0.00316 µM): 88.8%; viability, T/C (second compound 1 µM, first compound 0.01 µM): 118%; viability, T/C (second compound 3.16 µM, first compound 0.00316 µM): 113%; viability, T/C (second compound 3.16 µM, first compound 0.01 µM): 130%; viability, T/C (second compound 10 µM, first compound 0.00316 µM): 123%; viability, T/C (second compound 10 µM, first compound 0.01 µM): 92.3%; viability, T/C [37]: 67%; viability, T/C [38]: 56.8%; viability, T/C [39]: 28.7%; viability, T/C [40]: 3.85% |
| COc1cc(Nc2ncc3c(n2)-c2ccc(Cl)cc2C(c2c(F)cccc2OC)=NC3)ccc1C(=O)O + CC1OCC2(CCN(c3cnc(Sc4ccnc(N)c4Cl)c(N)n3)CC2)C1N | < 0.0316 µM | < 0.0316 µM | < 0.0316 µM | < 0.0316 µM | 36% | 32.9% | 33% | 35.2% | 30.3% | 29.7% | 24.5% | 27.9% | 22.2% | 22.8% | 21.1% | 22.1% | 17.1% | 18% | 15.8% | 15.7% | IC50 [36]: < 0.0316 µM; viability, T/C [16]: 38.8%; viability, T/C [17]: 33.8%; viability, T/C [22]: 30.4%; viability, T/C [23]: 27.5%; viability, T/C [28]: 22.6%; viability, T/C [29]: 21.7%; viability, T/C [34]: 16.1%; viability, T/C [35]: 16.2%; viability, T/C [37]: 13.7%; viability, T/C [38]: 13.9%; viability, T/C [39]: 11.8%; viability, T/C [40]: 11.4%; viability, T/C [41]: 12.1%; viability, T/C [42]: 11.9% |
| COc1cc(OC)cc(N(CCNC(C)C)c2ccc3ncc(-c4cnn(C)c4)nc3c2)c1 |  |  |  |  |  |  |  |  |  |  |  |  |  |  |  |  |  |  |  |  | viability, T/C (compound 0.0316 µM): 109% [middle of 5 runs]; viability, T/C (compound 0.1 µM): 106% [middle of 5 runs] |
| CC1(C)CCC(CN2CCN(c3ccc(C(=O)NS(=O)(=O)c4ccc(NCC5CCOCC5)c([N+](=O)[O-])c4)c(Oc4cnc5[nH]ccc5c4)c3)CC2)=C(c2ccc(Cl)cc2)C1 + C=CC(=O)N1CCN(c2nc(OCC3CCCN3C)nc3c2CCN(c2cccc4cccc(C)c24)C3)CC1CC#N | 2.24 µM | 1.95 µM | 1.77 µM | < 0.0316 µM | 115% | 105% | 112% | 108% | 114% | 108% | 97.8% | 105% | 119% | 101% | 115% | 98.2% | 0.28% | 1.07% | 0.22% | 0.18% | IC50 [1]: 2.13 µM; viability, T/C [6]: 101%; viability, T/C [7]: 107%; viability, T/C [8]: 110%; viability, T/C [9]: 117%; viability, T/C [10]: 19.4%; viability, T/C [11]: 3.14%; viability, T/C [16]: 25%; viability, T/C [17]: 4.15%; viability, T/C [22]: 10.8%; viability, T/C [23]: 0.82%; viability, T/C [28]: 0.67%; viability, T/C [29]: 0.35%; viability, T/C [34]: 0.13%; viability, T/C [35]: 0.17% |
| CC(C)NCC(C(=O)N1CCN(c2ncnc3c2C(C)CC3O)CC1)c1ccc(Cl)cc1 (stereo not given) + COc1cc2nc(C)nc(NC(C)c3cc(N)cc(C(F)(F)F)c3)c2cc1OC1CCOC1 | 0.414 µM | 0.305 µM | 0.359 µM | 0.571 µM | 103% | 83.4% | 54.8% | 34.8% | 100% | 85.4% | 47.2% | 21.6% | 98.2% | 87.8% | 50.2% | 24.6% | 107% | 90.4% | 96.5% | 5.81% | IC50 [36]: 0.0364 µM; viability, T/C [16]: 3.87%; viability, T/C [17]: 7.18%; viability, T/C [22]: 1.85%; viability, T/C [23]: 7.05%; viability, T/C [28]: 1.87%; viability, T/C [29]: 0.23%; viability, T/C [34]: 0.99%; viability, T/C [35]: 8.22%; viability, T/C [37]: 52.4%; viability, T/C [38]: 34.7%; viability, T/C [39]: 18.7%; viability, T/C [40]: 0.82%; viability, T/C [41]: 0.18%; viability, T/C [42]: 0.39% |
